Data taken from the supplement of paper PMC6045584.
± gives the standard deviation of the averaged measurements.

compound: CC[C@@]1(O)C(=O)OCc2c1cc1n(c2=O)Cc2cc3ccccc3nc2-1 [CAMPTOTHECIN]; experiment: surviving fraction relative to DMSO-only wells; higher = less growth inhibition; conditions: 0.5 nM; exposure time: 5 days
Outline: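 Each tumour cell line was screened three times, and only lines with replicate Pearson r >0.7 and median Z' >0.3 were kept. Cells in log phase were seeded at 250–500 per well in 384-well plates, left 24 hours, then exposed continuously for five days to inhibitors at 0.5, 1, 5, 10, 50, 100, 500 and 1000 nM. Viability was read as CellTiter-Glo luminescence, with surviving fraction normalised to the median of DMSO-only wells.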

Test System	surviving fraction
SAOS2 BONE	0.794 ± 0.046
MDAMB436 BREAST	0.678 ± 0.074
93VU HEADNECK	0.844 ± 0.091
KPD BONE	0.886 ± 0.02
SYO1 SYNOVIAL	0.359 ± 0.023
BT20 BREAST	0.764 ± 0.067
SUM44 BREAST	0.808 ± 0.15
CAL120 BREAST	0.901 ± 0.069
CHLA90 AUTONOMIC GANGLIA	0.318 ± 0.011
HCC1806 BREAST	0.717 ± 0.092
HCC78 LUNG	0.33 ± 0.059
MFM223 BREAST	0.746 ± 0.07
SG43 HEADNECK	1.16 ± 0.13
HOS BONE	0.902 ± 0.0096
MDAMB468 BREAST	0.872 ± 0.061
SG27 HEADNECK	0.702 ± 0.062

Test System	surviving fraction
ZR751 BREAST	0.774 ± 0.073
HSSYII SYNOVIAL	0.187 ± 0.025
MG63 BONE	0.873 ± 0.015
HS57T BREAST	0.826 ± 0.044
SUM159 BREAST	0.915 ± 0.014
HCC1395 BREAST	0.71 ± 0.18
SUM149.B1*.S BREAST	0.467 ± 0.023
MDAMB453 BREAST	0.966 ± 0.069
SCC90 HEADNECK	0.823 ± 0.035
HMLE3 BREAST	0.304 ± 0.027
HCC70 BREAST	0.905 ± 0.12
LNCAP PROSTATE	0.98 ± 0.035
HCT15 LARGE INTESTINE	0.33 ± 0.031
MHM BONE	0.9523 ± 0.0021
VCAP PROSTATE	0.879 ± 0.094

same assay, conditions: 1 nM; exposure time: 5 days

Test System	surviving fraction
SAOS2 BONE	0.829 ± 0.024
MDAMB436 BREAST	0.677 ± 0.055
93VU HEADNECK	0.838 ± 0.038
KPD BONE	0.856 ± 0.041
SYO1 SYNOVIAL	0.663 ± 0.033
BT20 BREAST	0.744 ± 0.088
SUM44 BREAST	0.813 ± 0.082
CAL120 BREAST	0.819 ± 0.0086
CHLA90 AUTONOMIC GANGLIA	0.835 ± 0.041
HCC1806 BREAST	0.661 ± 0.046
HCC78 LUNG	0.597 ± 0.15
MFM223 BREAST	0.703 ± 0.03
SG43 HEADNECK	1.18 ± 0.2
HOS BONE	0.889 ± 0.017
MDAMB468 BREAST	0.832 ± 0.095
SG27 HEADNECK	0.888 ± 0.19

Test System	surviving fraction
ZR751 BREAST	0.823 ± 0.12
HSSYII SYNOVIAL	0.686 ± 0.035
MG63 BONE	0.871 ± 0.028
HS57T BREAST	0.849 ± 0.041
SUM159 BREAST	0.937 ± 0.015
HCC1395 BREAST	0.909 ± 0.071
SUM149.B1*.S BREAST	0.853 ± 0.024
MDAMB453 BREAST	0.966 ± 0.017
SCC90 HEADNECK	0.879 ± 0.043
HMLE3 BREAST	0.85433 ± 0.00058
HCC70 BREAST	1.04 ± 0.029
LNCAP PROSTATE	0.802 ± 0.047
HCT15 LARGE INTESTINE	0.779 ± 0.041
MHM BONE	0.969 ± 0.031
VCAP PROSTATE	0.902 ± 0.052

same assay, conditions: 5 nM; exposure time: 5 days

Test System	surviving fraction
SAOS2 BONE	0.677 ± 0.055
MDAMB436 BREAST	0.391 ± 0.047
93VU HEADNECK	0.805 ± 0.036
KPD BONE	0.509 ± 0.0098
SYO1 SYNOVIAL	0.325 ± 0.026
BT20 BREAST	0.492 ± 0.089
SUM44 BREAST	0.835 ± 0.11
CAL120 BREAST	0.409 ± 0.033
CHLA90 AUTONOMIC GANGLIA	0.584 ± 0.031
HCC1806 BREAST	0.269 ± 0.054
HCC78 LUNG	0.0267 ± 0.0057
MFM223 BREAST	0.566 ± 0.047
SG43 HEADNECK	1.01 ± 0.11
HOS BONE	0.758 ± 0.011
MDAMB468 BREAST	0.782 ± 0.094
SG27 HEADNECK	0.867 ± 0.089

Test System	surviving fraction
ZR751 BREAST	0.693 ± 0.13
HSSYII SYNOVIAL	0.213 ± 0.011
MG63 BONE	0.434 ± 0.019
HS57T BREAST	0.79 ± 0.011
SUM159 BREAST	0.793 ± 0.018
HCC1395 BREAST	0.788 ± 0.064
SUM149.B1*.S BREAST	0.692 ± 0.075
MDAMB453 BREAST	1.01 ± 0.048
SCC90 HEADNECK	0.904 ± 0.058
HMLE3 BREAST	0.485 ± 0.027
HCC70 BREAST	0.958 ± 0.092
LNCAP PROSTATE	0.254 ± 0.017
HCT15 LARGE INTESTINE	0.232 ± 0.083
MHM BONE	0.94 ± 0.026
VCAP PROSTATE	0.801 ± 0.1

same assay, conditions: 10 nM; exposure time: 5 days

Test System	surviving fraction
SAOS2 BONE	0.415 ± 0.018
MDAMB436 BREAST	0.318 ± 0.048
93VU HEADNECK	0.789 ± 0.063
KPD BONE	0.327 ± 0.004
SYO1 SYNOVIAL	0.15 ± 0.024
BT20 BREAST	0.197 ± 0.015
SUM44 BREAST	0.846 ± 0.056
CAL120 BREAST	0.314 ± 0.035
CHLA90 AUTONOMIC GANGLIA	0.481 ± 0.05
HCC1806 BREAST	0.128 ± 0.015
HCC78 LUNG	0.0123 ± 0.0031
MFM223 BREAST	0.573 ± 0.11
SG43 HEADNECK	0.854 ± 0.18
HOS BONE	0.25 ± 0.021
MDAMB468 BREAST	0.546 ± 0.056
SG27 HEADNECK	0.906 ± 0.021

Test System	surviving fraction
ZR751 BREAST	0.586 ± 0.099
HSSYII SYNOVIAL	0.12 ± 0.0066
MG63 BONE	0.295 ± 0.0068
HS57T BREAST	0.505 ± 0.031
SUM159 BREAST	0.26 ± 0.0036
HCC1395 BREAST	0.732 ± 0.044
SUM149.B1*.S BREAST	0.301 ± 0.021
MDAMB453 BREAST	0.942 ± 0.058
SCC90 HEADNECK	0.75 ± 0.046
HMLE3 BREAST	0.3 ± 0.0056
HCC70 BREAST	0.63 ± 0.044
LNCAP PROSTATE	0.164 ± 0.01
HCT15 LARGE INTESTINE	0.0333 ± 0.0047
MHM BONE	0.927 ± 0.025
VCAP PROSTATE	0.508 ± 0.034
